Results from ChEMBL document CHEMBL1201862, “PubChem BioAssay data set” (2004).
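Exposure lasted 48 hours, with cells grown in 96-well plates and compounds tested at five concentrations. Abbreviation: GI50, concentration required for 50% inhibition of growth.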 Active and inactive are the calls of the source. No stated cut-off is given here; in the data, active = GI50 up to about 1.1 µM and inactive = higher.

Legend:
Test in all cases: NCI-60 cell line screen, 48 h
[1] = tested on: A549
[2] = tested on: ACHN
[3] = tested on: HCC 2998
[4] = tested on: HCT-116
[5] = tested on: HCT-15
[6] = tested on: HL-60
[7] = tested on: HT-29
[8] = tested on: LOX IMVI
[9] = tested on: SF-539
[10] = tested on: SK-MEL-5
[11] = tested on: SNB-75
[12] = tested on: SR
[13] = tested on: U-251
[14] = tested on: UACC-257
[15] = tested on: UO-31
[16] = tested on: NCI-H460

Row | SMILES | GI50 [1] | GI50 [2] | GI50 [3] | GI50 [4] | GI50 [5] [µM] | GI50 [6] | GI50 [7] | GI50 [8] | GI50 [9] | GI50 [10] | GI50 [11] | GI50 [12] | GI50 [13] | GI50 [14] | GI50 [15] | GI50 [16]
1 | COc1ccc2c(c1)C(=O)c1ccc(OC)cc1C2=S | > 100 µM (inactive) | > 100 µM (inactive) | > 100 µM (inactive) | > 100 µM (inactive) | > 100 | 40.1 µM (inactive) | > 100 µM (inactive) | > 100 µM (inactive) | > 100 µM (inactive) | > 100 µM (inactive) | 30.3 µM (inactive) | > 100 µM (inactive) | 24.4 µM (inactive) | > 100 µM (inactive) | > 100 µM (inactive) | 
2 | COC(=O)c1csnn1 | > 100 µM (inactive) | > 100 µM (inactive) | > 100 µM (inactive) | > 100 µM (inactive) | > 100 | > 100 µM (inactive) | > 100 µM (inactive) | > 100 µM (inactive) | > 100 µM (inactive) | > 100 µM (inactive) |  | > 100 µM (inactive) | > 100 µM (inactive) | > 100 µM (inactive) | > 100 µM (inactive) | > 100 µM (inactive)
3 | CC(=O)NC(CCCNC(=O)NCCCl)C(=O)NCc1ccccc1 (stereo unspecified) | > 100 µM (inactive) | > 100 µM (inactive) | > 100 µM (inactive) | > 100 µM (inactive) | > 100 | > 100 µM (inactive) | > 100 µM (inactive) |  | > 100 µM (inactive) | > 100 µM (inactive) | > 100 µM (inactive) | > 100 µM (inactive) | > 100 µM (inactive) | > 100 µM (inactive) | > 100 µM (inactive) | > 100 µM (inactive)
4 | CN1C/C(=C\C=C\c2ccccc2)C(=O)/C(=C/C=C/c2ccccc2)C1 | > 100 µM (inactive) | > 100 µM (inactive) | > 100 µM (inactive) | > 100 µM (inactive) | > 100 |  | > 100 µM (inactive) | > 100 µM (inactive) | > 100 µM (inactive) | > 100 µM (inactive) | > 100 µM (inactive) |  | > 100 µM (inactive) | > 100 µM (inactive) | > 100 µM (inactive) | > 100 µM (inactive)
5 | O=C(O)c1ccccc1Cc1ccco1 | > 100 µM (inactive) | > 100 µM (inactive) | > 100 µM (inactive) | > 100 µM (inactive) | > 100 |  | > 100 µM (inactive) |  | > 100 µM (inactive) | > 100 µM (inactive) | > 100 µM (inactive) | > 100 µM (inactive) | > 100 µM (inactive) | > 100 µM (inactive) | > 100 µM (inactive) | > 100 µM (inactive)
6 | CCc1cccc(C)c1NS(=O)(=O)c1ccccc1 | > 100 µM (inactive) | > 100 µM (inactive) | > 100 µM (inactive) | > 100 µM (inactive) | > 100 | > 100 µM (inactive) | > 100 µM (inactive) |  | > 100 µM (inactive) | > 100 µM (inactive) | > 100 µM (inactive) |  | > 100 µM (inactive) | > 100 µM (inactive) | > 100 µM (inactive) | > 100 µM (inactive)
7 | CC1=C(C(=O)CC(=O)C(=O)Nc2cc(C)ccc2C)Sc2ccccc2N1 | > 100 µM (inactive) | > 100 µM (inactive) | > 100 µM (inactive) | > 100 µM (inactive) | > 100 | > 100 µM (inactive) | > 100 µM (inactive) | > 100 µM (inactive) | > 100 µM (inactive) | > 100 µM (inactive) |  |  | > 100 µM (inactive) | > 100 µM (inactive) | > 100 µM (inactive) | > 10 µM (inactive)
8 | CCOP(=O)(OCC)/C(C#N)=C/c1ccc[nH]1 | > 100 µM (inactive) | > 100 µM (inactive) |  | > 100 µM (inactive) | > 100 | > 100 µM (inactive) | > 100 µM (inactive) | > 100 µM (inactive) | > 100 µM (inactive) | > 100 µM (inactive) | 55.7 µM (inactive) | > 100 µM (inactive) | > 100 µM (inactive) | > 100 µM (inactive) | > 100 µM (inactive) | > 100 µM (inactive)
9 | Cc1ccc(SC2C(C)(C)N(C(C)C)P2(=O)N(C(C)C)C(C)C)cc1 (stereo unspecified) | > 45 µM (inactive) | 15.8 µM (inactive) | 64.3 µM (inactive) | 26.4 µM (inactive) | 62.8 | 14.7 µM (inactive) | 26 µM (inactive) | 28 µM (inactive) | > 88.9 µM (inactive) | 22.4 µM (inactive) | > 100 µM (inactive) | 14.2 µM (inactive) | > 59 µM (inactive) | 16.9 µM (inactive) | 46.1 µM (inactive) | 27.5 µM (inactive)
10 | CN(c1ccccc1)C1C(=O)N(c2ccccc2)C1/C=C/c1ccccc1 (stereo unspecified) | > 100 µM (inactive) | > 100 µM (inactive) | > 100 µM (inactive) | > 100 µM (inactive) |  | > 100 µM (inactive) | > 100 µM (inactive) |  | > 100 µM (inactive) | > 100 µM (inactive) | > 100 µM (inactive) | > 100 µM (inactive) | > 100 µM (inactive) | > 100 µM (inactive) | > 100 µM (inactive) | > 100 µM (inactive)
